Active and inactive are the calls of the source.

What is called IC50 is the point on the concentration scale where inhibition reaches its midpoint. The AC50 is the concentration giving half of the maximal activity seen. The EC50 is the concentration needed to bring the measured effect to its halfway point.

The target of assay [1] is Melanin-concentrating hormone receptor 1 (Homo sapiens, UniProt Q99705). Nature of the assay: Late-stage fluorescence-based counterscreen for antagonists of the G-protein coupled receptor 7 (GPR7): cell-based dose response assay to identify antagonists of the melanin-concentrating hormone receptor 1 (MCHR1) Set 5. The format is functional.
Melanin-concentrating hormone receptor 1, sequence (Q99705 whole entry): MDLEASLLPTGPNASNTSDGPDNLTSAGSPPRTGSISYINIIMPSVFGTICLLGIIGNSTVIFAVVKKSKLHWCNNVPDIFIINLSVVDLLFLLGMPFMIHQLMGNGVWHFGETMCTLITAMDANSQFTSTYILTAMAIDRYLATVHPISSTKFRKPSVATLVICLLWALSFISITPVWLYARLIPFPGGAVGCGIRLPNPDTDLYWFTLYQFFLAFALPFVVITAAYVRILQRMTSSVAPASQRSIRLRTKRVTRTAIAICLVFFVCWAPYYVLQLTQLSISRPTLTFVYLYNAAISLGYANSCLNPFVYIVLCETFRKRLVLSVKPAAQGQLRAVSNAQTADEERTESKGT
Assay [2] has as its system H4. Nature of the assay: Inhibitors of Prion Protein 5' UTR mRNA Measured in Cell-Based System Using Plate Reader - 2078-01_Inhibitor_Dose_DryPowder_Activity. [Related pubchem assays (depositor defined):AID488894]. The format is functional. The following applies: Homo sapiens.
Assay [3] addresses T1, Luciferin 4-monooxygenase (Photinus pyralis, UniProt P08659). Briefly: inhibition of purified Photinus pyralis luciferase – biochemical, luminescence, dose response (AID 1891).
A short description of assay [4]: general cell-killing toxicity readout – plate reader, dry powder samples, cytotoxicity control for PAX8 inhibitor project, dose response (AID 743021). The format is functional, cell-based.
Another assay addresses Paired box protein Pax-8 (Homo sapiens, UniProt Q06710). Nature of the assay: PAX8 transcriptional activity inhibition in RMG-I – RMG-I cells, luciferase, cherry-pick, dose response (AID 687027).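 Note: luciferase reporter driven by Pax8 target thyroperoxidase promoter measured by SteadyGlo luminescence.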 It is filed as functional, cell-based.
Assay [5] in a line: Luminescence Cell-Based Dose Confirmation HTS to Identify Inhibitors of Platelet Dense Granule Release. [Related pubchem assays: 1663 (Primary HTS), 1678 (Summary of Project)]. It is filed as functional.
Assay [6] deals with H4. Briefly: Amyloid Precursor 5' UTR neuroblastoma cell reporter line Measured in Cell-Based System Using Plate Reader - 2078-04_Inhibitor_Dose_DryPowder_Activity. [Related pubchem assays (depositor defined):AID488894]. The format is functional. The following applies: Homo sapiens.
Assay [7] addresses T1, Luciferin 4-monooxygenase. Briefly: inhibition of purified Photinus pyralis luciferase – biochemical, dry powder samples, plate reader, dose response (AID 588451).
Assay [8] concerns the target Cyclin-dependent kinase 5/CDK5 activator 1 (Homo sapiens, UniProt Q00535). Nature of the assay: blockade of human CDK5 activity – biochemical, cherry-picked samples, set 2, dose response (AID 504545).
Another assay addresses ELAV-like protein 1 (Homo sapiens, UniProt Q15717). Briefly: Identify HuR specific inhibitors. The format is functional.
The next assay has as its target Nonstructural protein 1 (Influenza A virus, UniProt Q194T2). The format is functional, Influenza A virus (A/California/07/2009(H1N1)).
The next assay addresses Protein S100-A4 (Homo sapiens, UniProt P26447). Nature of the assay: human S100A4 peptide interaction inhibition curves – biochemical, fluorescence polarization, cherry-picked hits, dose response (AID 687001). The format is functional. In general terms: Fluorescence polarisation rises when a labelled molecule tumbles more slowly, as on binding a larger partner.
For assay [9], the target named is Protein disulfide-isomerase (Homo sapiens, UniProt P07237). Briefly: inhibition of PDI-driven insulin aggregation – biochemical, turbidity, absorbance, cherry-picked samples, dose response (AID 602350). The format is functional.
Protein disulfide-isomerase, sequence (P07237 whole entry): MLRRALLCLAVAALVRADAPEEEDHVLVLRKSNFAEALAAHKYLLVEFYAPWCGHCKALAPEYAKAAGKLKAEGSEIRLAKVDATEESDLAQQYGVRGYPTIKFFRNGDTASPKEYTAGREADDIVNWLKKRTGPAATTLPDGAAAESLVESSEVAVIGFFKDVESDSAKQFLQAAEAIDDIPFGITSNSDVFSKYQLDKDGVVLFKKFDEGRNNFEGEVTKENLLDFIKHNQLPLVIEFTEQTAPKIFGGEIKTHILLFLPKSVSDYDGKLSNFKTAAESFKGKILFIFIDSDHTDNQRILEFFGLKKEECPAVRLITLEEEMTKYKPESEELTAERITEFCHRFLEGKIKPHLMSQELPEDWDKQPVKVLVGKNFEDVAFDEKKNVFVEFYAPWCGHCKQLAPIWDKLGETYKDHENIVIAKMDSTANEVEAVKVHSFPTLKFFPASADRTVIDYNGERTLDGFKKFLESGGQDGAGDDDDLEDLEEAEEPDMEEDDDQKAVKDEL
The target of assay [10] is T2, Sentrin-specific protease 8 (Homo sapiens, UniProt Q96LD8).
T2 sequence (Q96LD8 whole entry): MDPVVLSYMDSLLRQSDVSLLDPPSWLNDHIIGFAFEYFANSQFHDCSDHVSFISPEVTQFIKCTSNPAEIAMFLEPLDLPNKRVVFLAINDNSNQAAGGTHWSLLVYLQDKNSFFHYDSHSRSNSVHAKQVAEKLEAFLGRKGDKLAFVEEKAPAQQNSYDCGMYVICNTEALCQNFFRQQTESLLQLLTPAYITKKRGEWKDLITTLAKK
Nature of the assay: inhibition of sentrin protease 8 – biochemical, luminescence, set 2, SAR follow-up (AID 588601). It is filed as functional.

A further assay has as its target T3, Caspase-3 (Homo sapiens, UniProt P42574).
T3 sequence (P42574 whole entry): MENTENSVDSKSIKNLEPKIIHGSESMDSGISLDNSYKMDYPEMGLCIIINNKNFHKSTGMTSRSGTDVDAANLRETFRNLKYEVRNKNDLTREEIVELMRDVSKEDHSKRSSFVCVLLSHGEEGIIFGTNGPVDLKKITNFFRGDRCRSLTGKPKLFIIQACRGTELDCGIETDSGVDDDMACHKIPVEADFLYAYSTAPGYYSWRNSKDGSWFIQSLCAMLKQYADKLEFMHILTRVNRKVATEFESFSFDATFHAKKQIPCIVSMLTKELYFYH
Nature of the assay: inhibition of recombinant caspase-3 activity – biochemical, luminescence, set 2, selectivity assay for SENP protease inhibitor project, SAR follow-up (AID 588599). The format is functional.

Assay [11] has as its target T4, Sentrin-specific protease 6 (Homo sapiens, UniProt Q9GZR1).
T4 sequence (Q9GZR1 whole entry): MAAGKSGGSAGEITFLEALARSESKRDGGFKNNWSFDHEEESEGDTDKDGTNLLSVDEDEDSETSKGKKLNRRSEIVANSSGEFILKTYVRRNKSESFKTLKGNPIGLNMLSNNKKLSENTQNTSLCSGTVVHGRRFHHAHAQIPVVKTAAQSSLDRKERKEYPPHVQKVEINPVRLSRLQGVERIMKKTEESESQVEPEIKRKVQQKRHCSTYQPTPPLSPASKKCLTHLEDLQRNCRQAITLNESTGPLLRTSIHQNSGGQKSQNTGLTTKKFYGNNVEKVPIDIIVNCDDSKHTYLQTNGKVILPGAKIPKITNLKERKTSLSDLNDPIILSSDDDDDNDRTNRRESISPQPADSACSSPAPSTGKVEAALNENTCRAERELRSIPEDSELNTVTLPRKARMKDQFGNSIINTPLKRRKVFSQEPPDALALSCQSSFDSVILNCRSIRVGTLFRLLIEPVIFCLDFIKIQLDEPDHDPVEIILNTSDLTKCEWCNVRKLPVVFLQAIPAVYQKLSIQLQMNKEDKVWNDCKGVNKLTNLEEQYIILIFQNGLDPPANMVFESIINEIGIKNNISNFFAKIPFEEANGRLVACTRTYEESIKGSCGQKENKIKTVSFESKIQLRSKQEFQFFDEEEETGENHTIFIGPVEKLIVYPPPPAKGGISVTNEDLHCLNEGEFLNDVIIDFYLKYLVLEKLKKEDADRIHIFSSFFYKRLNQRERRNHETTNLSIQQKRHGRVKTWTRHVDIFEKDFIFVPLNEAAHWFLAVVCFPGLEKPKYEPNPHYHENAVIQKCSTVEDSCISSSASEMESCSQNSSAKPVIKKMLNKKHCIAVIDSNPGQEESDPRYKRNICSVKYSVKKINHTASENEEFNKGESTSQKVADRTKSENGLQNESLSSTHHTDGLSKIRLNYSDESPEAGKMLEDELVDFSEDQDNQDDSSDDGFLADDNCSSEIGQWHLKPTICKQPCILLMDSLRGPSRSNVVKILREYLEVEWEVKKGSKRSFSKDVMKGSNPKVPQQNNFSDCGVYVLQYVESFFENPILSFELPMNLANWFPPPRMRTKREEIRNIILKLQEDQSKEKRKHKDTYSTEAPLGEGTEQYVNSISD
Briefly: inhibition of human SENP6 catalytic domain – biochemical, luminescence, set 2, SAR follow-up (AID 588598). It is filed as functional.

Assay [12] has as its target T5, Sentrin-specific protease 7 (Homo sapiens, UniProt Q9BQF6).
T5 sequence (Q9BQF6 whole entry): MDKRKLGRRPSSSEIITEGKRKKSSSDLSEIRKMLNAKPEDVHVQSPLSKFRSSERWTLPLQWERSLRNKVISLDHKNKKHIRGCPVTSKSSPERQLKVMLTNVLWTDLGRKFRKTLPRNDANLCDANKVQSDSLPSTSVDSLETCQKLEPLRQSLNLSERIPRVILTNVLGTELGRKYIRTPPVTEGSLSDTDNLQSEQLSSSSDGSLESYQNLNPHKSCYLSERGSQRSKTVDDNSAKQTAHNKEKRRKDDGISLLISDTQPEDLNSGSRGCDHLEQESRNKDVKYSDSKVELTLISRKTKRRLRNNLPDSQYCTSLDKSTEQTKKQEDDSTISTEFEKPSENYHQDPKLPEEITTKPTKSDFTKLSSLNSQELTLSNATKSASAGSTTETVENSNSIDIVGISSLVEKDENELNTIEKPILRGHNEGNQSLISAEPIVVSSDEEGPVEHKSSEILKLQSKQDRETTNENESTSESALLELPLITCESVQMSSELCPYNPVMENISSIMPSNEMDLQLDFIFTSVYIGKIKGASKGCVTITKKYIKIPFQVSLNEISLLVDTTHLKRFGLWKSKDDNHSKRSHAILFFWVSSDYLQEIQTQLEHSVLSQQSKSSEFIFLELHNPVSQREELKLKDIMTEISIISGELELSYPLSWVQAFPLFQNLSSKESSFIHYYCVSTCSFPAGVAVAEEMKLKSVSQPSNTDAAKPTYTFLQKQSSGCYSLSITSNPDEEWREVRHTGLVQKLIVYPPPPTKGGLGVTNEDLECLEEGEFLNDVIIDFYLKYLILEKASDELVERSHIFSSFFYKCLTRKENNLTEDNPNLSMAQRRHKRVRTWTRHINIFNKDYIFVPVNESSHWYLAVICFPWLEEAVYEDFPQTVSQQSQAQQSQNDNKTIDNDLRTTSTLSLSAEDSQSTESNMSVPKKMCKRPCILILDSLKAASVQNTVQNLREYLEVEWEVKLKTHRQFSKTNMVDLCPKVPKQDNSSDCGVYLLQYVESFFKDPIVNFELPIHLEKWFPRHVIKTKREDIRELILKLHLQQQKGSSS
Briefly: inhibition of human SENP7 cleavage activity – biochemical, luminescence, set 2, SAR follow-up (AID 588600). It is filed as functional.

T1 sequence (P08659 whole entry): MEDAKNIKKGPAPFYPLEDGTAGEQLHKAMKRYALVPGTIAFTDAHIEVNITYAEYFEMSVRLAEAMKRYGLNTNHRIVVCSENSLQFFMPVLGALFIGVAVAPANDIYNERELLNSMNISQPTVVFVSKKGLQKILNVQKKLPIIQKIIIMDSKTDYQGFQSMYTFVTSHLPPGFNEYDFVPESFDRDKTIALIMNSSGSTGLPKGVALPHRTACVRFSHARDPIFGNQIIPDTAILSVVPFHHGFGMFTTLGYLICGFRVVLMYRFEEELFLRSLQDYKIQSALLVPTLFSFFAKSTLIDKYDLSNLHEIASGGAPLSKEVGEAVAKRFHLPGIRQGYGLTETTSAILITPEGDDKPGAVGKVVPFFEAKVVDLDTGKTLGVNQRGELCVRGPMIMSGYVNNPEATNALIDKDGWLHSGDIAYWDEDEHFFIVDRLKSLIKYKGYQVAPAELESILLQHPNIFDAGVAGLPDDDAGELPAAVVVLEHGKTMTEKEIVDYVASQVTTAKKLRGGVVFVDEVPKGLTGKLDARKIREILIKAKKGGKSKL
ELAV-like protein 1, sequence (Q15717 whole entry): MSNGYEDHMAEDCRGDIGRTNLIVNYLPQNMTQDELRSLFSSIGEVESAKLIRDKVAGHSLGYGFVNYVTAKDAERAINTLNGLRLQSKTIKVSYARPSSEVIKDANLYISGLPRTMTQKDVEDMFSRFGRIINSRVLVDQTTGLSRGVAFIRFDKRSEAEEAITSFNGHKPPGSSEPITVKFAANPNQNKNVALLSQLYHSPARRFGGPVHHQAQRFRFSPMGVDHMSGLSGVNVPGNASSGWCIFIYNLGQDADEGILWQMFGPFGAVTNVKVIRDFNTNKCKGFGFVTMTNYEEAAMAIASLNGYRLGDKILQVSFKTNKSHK
Cyclin-dependent kinase 5/CDK5 activator 1, sequence (Q00535 whole entry): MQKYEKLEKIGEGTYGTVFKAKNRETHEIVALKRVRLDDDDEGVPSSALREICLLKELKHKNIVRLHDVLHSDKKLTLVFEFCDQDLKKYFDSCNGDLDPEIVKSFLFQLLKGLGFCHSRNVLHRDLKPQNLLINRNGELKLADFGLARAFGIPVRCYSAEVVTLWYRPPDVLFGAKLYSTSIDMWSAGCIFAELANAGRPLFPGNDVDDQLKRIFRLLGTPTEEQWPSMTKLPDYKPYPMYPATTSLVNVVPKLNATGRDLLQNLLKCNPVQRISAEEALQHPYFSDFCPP
Cyclin-dependent kinase 5/CDK5 activator 1, sequence (Q15078 whole entry, further chain): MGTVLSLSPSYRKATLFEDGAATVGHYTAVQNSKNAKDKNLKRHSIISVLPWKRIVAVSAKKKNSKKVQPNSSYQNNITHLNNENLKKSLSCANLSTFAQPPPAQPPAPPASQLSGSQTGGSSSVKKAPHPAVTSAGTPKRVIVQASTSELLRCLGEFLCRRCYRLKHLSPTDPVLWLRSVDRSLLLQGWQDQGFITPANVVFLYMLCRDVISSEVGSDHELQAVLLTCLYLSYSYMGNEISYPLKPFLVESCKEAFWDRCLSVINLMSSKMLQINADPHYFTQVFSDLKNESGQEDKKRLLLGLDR
Nonstructural protein 1, sequence (Q194T2 whole entry): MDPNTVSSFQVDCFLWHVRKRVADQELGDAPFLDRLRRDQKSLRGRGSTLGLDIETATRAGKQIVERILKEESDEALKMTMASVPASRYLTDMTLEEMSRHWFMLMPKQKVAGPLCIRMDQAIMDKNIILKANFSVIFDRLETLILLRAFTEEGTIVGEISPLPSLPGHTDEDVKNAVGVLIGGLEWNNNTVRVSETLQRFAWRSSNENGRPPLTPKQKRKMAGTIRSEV
Paired box protein Pax-8, sequence (Q06710 whole entry): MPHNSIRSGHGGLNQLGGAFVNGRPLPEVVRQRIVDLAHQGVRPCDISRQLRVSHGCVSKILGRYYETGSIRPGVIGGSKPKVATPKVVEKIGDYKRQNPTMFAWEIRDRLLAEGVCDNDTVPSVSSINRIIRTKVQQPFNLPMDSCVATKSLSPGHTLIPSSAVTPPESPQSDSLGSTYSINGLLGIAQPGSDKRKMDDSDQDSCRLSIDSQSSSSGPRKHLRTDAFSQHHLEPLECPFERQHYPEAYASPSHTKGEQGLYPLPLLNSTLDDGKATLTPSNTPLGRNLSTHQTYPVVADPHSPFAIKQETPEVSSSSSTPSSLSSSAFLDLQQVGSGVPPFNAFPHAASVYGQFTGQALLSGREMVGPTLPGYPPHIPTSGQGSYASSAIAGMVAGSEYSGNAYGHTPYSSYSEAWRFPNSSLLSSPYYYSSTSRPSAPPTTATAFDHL
Protein S100-A4, sequence (P26447 whole entry): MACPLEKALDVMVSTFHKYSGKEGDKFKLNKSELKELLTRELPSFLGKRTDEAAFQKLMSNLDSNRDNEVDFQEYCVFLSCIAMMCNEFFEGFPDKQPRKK

`COc1ccc(Oc2c(Cl)cnn(Cc3ccccc3OC)c2=O)cc1`: the IC50 in [1] is 6.63 µM (active).

As to `Cc1ccc(C(=O)O/N=C(\N)c2ccccn2)cc1`, the AC50 in the assay with H4 [2] is 0.731 µM (active); in assay [4], 29.9 µM (active); at Paired box protein Pax-8, 15.5 µM (active); in the assay on H4 [6] it was 0.244 µM (active); in assay [7] it was 0.06 µM (active); in assay [8], 39 µM (active). In addition, the EC50 in [3] is 0.994 µM (active); in [5] it was 1.6 µM (active).

As for `COc1cccc2c1C(=O)c1c(O)c3c(c(O)c1C2=O)CC(O)(C(C)=NO)CC3OC1CC(N)C(O)C(C)O1` (configuration not stated), the IC50 was 21.7 µM (active) at ELAV-like protein 1 and 32 µM (active) on Nonstructural protein 1. The AC50 is 0.406 µM (active) at Protein S100-A4 and 16.9 µM (active) in [9].

On to `Cc1ccc2nc(NC(=O)c3cccc(-n4cnnn4)c3)sc2c1`, for which the IC50 (in assay [10]; at Caspase-3; in assay [11]; in assay [12]) was > 99 µM (inactive) throughout.

The values above are taken from ChEMBL document CHEMBL1201862, “PubChem BioAssay data set” (2004).
